Results on four molecules are retold here after publication PMC5424146, “Activity-based protein profiling as a robust method for enzyme identification and screening in extremophilic Archaea” (Nature Communications, 2017).

The target in test [1] is T1, TM_1022 (Thermotoga maritima, UniProt G4FEX6).
T1 construct: gene with own promoter (about 500 bp upstream; pSVA-p-tm1022) in S. acidocaldarius esterase double knockout
T1 sequence (G4FEX6 1-253): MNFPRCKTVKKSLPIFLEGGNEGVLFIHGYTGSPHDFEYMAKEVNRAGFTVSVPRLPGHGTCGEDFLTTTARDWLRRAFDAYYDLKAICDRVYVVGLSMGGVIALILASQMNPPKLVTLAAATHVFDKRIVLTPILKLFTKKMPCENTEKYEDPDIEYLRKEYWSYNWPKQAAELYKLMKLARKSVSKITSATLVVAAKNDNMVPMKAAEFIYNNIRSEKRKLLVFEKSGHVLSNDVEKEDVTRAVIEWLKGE
Kind of test: halo on indicator plate, double knockout expressing TM_[…]. The settings on record: 1% (v/v) in plate; 78 °C; up to 3 days. The class given is cell-based.

The target of test [2] is T2, esterase/lipase Saci_1105 (1105) (Sulfolobus acidocaldarius, UniProt Q4J9S2).
T2 construct: full gene under the maltose promoter (pSVAmZ-saci_1105) in S. acidocaldarius esterase double knockout; crude lysate or living cells
T2 sequence (Q4J9S2 1-306): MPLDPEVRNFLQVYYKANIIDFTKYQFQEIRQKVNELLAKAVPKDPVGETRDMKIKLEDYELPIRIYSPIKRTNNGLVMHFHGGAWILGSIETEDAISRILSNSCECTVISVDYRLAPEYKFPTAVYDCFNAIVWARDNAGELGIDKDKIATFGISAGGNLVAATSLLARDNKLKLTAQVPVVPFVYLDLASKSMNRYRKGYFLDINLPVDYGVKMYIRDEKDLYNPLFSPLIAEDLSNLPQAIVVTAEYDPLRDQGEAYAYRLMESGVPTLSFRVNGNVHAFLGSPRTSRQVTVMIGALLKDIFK
The test is described as follows: biochemical.

The target of test [3] is T1, TM_1022. The test is described as follows: esterase activity, pNP-octanoate hydrolysis, lysate of double knockout expressing TM_[…]; also competitive labelling at […]. The test is classed as biochemical. The settings on record: pNP-octanoate 0.5 mM; pH 8.0; 35 °C; pre-incubation 1 h at 60 °C; covalent.
Test [4] concerns the target T3, acetylesterase Saci_1116 (1116) (Sulfolobus acidocaldarius, UniProt Q4J9R2).
T3 construct: full gene under the maltose promoter (pSVA-saci_1116) in the esterase double knockout, or native protein in the delta 1105 strain
T3 sequence (Q4J9R2 1-305): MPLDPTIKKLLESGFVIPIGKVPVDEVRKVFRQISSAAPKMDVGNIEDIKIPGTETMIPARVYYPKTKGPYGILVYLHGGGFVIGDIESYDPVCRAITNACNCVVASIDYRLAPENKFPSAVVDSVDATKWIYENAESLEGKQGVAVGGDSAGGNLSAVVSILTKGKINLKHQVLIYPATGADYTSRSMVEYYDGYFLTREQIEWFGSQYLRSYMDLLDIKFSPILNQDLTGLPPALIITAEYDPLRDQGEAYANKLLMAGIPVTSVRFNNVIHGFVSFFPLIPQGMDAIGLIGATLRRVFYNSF
Kind of test: esterase activity, pNP-octanoate hydrolysis at […] nm, lysate of delta […] strain. The test is classed as biochemical. The settings on record: pNP-octanoate 0.5 mM; pH 8.0; 35 °C; pre-incubation 1 h at 60 °C; covalent.

The structures appear in SMILES notation.

As to `CCCCCC(=O)OCC(COC(=O)CCCCC)OC(=O)CCCCC` [tricaproin], the “halo on indicator plate, double knockout expressing TM_1022” value at TM_1022 [1] was “the halo for the tricaproin substrate was thereby slightly larger than for tributyrate”.

As usually defined, the IC50 is the concentration needed to halve the response being measured. A higher IC50 goes with lower potency. Molecule `C#CCNC(=O)OCCOCCOCCOCCP(=O)(OCC)Oc1ccc([N+](=O)[O-])cc1` (centres unmarked) [compound 2, NP≡] displayed a half-inhibitory concentration (IC50) in test [2] of 150 nM. With `CCOP(=O)(OCC)Oc1ccc([N+](=O)[O-])cc1` [paraoxon], the “reduced activity at 250 μM” value (on TM_1022 [3]; in test [4]) was “pre-incubation with paraoxon led in all cases to a significantly reduced esterase activity” each time. Take `CCCC(=O)OCC(COC(=O)CCC)OC(=O)CCC` [tributyrin]: at TM_1022 [1], the “halo on indicator plate, double knockout expressing TM_1022” value is reported as “For both substrates, a time-dependent formation of a halo could be observed for this culture”.
